Results reported in ChEMBL document CHEMBL3860070, “Optimization and biological evaluation of celastrol derivatives as Hsp90-Cdc37 interaction disruptors with improved druglike properties” (Bioorg Med Chem, 2016).
Active and inactive are the calls of the source. No cut-off for these calls is given here.

What was measured:
[1] = Antiproliferative activity against human A549 cells assessed as reduction in cell viability after 48 hrs by MTT assay; type: functional, cell-based; conditions: A549, 48 h
[2] = Antiproliferative activity against human MCF7 cells assessed as reduction in cell viability after 48 hrs by MTT assay; type: functional, cell-based; conditions: MCF7, 48 h
[3] = species on record: Homo sapiens; assay: Inhibition of His-tagged full length Hsp90/GST-tagged Cdc37 middle domain (unknown origin) interaction at 50 uM after 1 hr by TR-FRET assay relative to control
[4] = Antiproliferative activity against human PANC1 cells assessed as reduction in cell viability after 48 hrs by MTT assay; type: functional, cell-based; conditions: PANC-1, 48 h
[5] = Permeability of the compound at pH 7.4 by PAMPA-based pION assay; type: ADME; conditions: read-out: permeability
[6] = Antiproliferative activity against paclitaxel-resistant human A549 cells assessed as reduction in cell viability after 48 hrs by MTT assay; type: functional, cell-based; conditions: A549, 48 h
[7] = Inhibition of His-tagged full length Hsp90/GST-tagged Cdc37 middle domain (unknown origin) interaction after 1 hr by TR-FRET assay; set-up: species or system Homo sapiens
[8] = Cell cycle arrest in human PANC1 cells assessed as accumulation at G2/M phase at 0.5 uM after 24 hrs by propidium iodide staining-based FACS analysis (reference value: 33.56 %); type: functional; conditions: PANC-1
[9] = tested on: PANC-1; assay: Induction of apoptosis in human PANC1 cells assessed as late apoptotic cells at 0.5 uM after 24 hrs by Annexin V-FITC/propidium iodide-based FACS analysis (reference value: 0.30 %); type: functional
[10] = tested on: PANC-1; assay: Induction of apoptosis in human PANC1 cells assessed as necrotic cells at 1 uM after 24 hrs by Annexin V-FITC/propidium iodide-based FACS analysis (reference value: 0.75 %); type: functional
[11] = Cell cycle arrest in human PANC1 cells assessed as accumulation at S phase at 1 uM after 24 hrs by propidium iodide staining-based FACS analysis (reference value: 29.96 %); type: functional; conditions: PANC-1
[12] = tested on: PANC-1; assay: Induction of apoptosis in human PANC1 cells assessed as late apoptotic cells at 1 uM after 24 hrs by Annexin V-FITC/propidium iodide-based FACS analysis (reference value: 0.30 %); type: functional
[13] = Cell cycle arrest in human PANC1 cells assessed as accumulation at G0/G1 phase at 0.5 uM after 24 hrs by propidium iodide staining-based FACS analysis (reference value: 36.48 %); type: functional; conditions: PANC-1
[14] = tested on: PANC-1; assay: Inhibition of Hsp90/Cdc37 interaction in human PANC1 cells assessed as downregulation of Cdk4 after 24 hrs by Western blot analysis; type: cell-based
[15] = tested on: PANC-1; assay: Induction of apoptosis in human PANC1 cells assessed as necrotic cells at 0.5 uM after 24 hrs by Annexin V-FITC/propidium iodide-based FACS analysis (reference value: 0.75 %); type: functional
[16] = Cell cycle arrest in human PANC1 cells assessed as accumulation at G0/G1 phase at 1 uM after 24 hrs by propidium iodide staining-based FACS analysis (reference value: 36.48 %); type: functional; conditions: PANC-1
[17] = tested on: PANC-1; assay: Induction of apoptosis in human PANC1 cells assessed as early apoptotic cells at 1 uM after 24 hrs by Annexin V-FITC/propidium iodide-based FACS analysis (reference value: 4.31 %); type: functional
[18] = tested on: PANC-1; assay: Induction of apoptosis in human PANC1 cells assessed as viable cells at 0.5 uM after 24 hrs by Annexin V-FITC/propidium iodide-based FACS analysis (reference value: 94.63 %); type: functional; conditions: PANC-1, 24 h, read-out: Activity
[19] = tested on: PANC-1; assay: Inhibition of Hsp90/Cdc37 interaction in human PANC1 cells assessed as downregulation of Akt after 24 hrs by Western blot analysis; type: cell-based
[20] = Cell cycle arrest in human PANC1 cells assessed as accumulation at S phase at 0.5 uM after 24 hrs by propidium iodide staining-based FACS analysis (reference value: 29.96 %); type: functional; conditions: PANC-1
[21] = tested on: PANC-1; assay: Induction of apoptosis in human PANC1 cells assessed as early apoptotic cells at 0.5 uM after 24 hrs by Annexin V-FITC/propidium iodide-based FACS analysis (reference value: 4.31 %); type: functional
[22] = tested on: PANC-1; assay: Induction of apoptosis in human PANC1 cells assessed as viable cells at 1 uM after 24 hrs by Annexin V-FITC/propidium iodide-based FACS analysis (reference value: 94.63 %); type: functional; conditions: PANC-1, 24 h, read-out: Activity
[23] = tested on: PANC-1; assay: Inhibition of Hsp90/Cdc37 interaction in human PANC1 cells assessed as induction of Hsp70 at 0.1 to 5 uM after 24 hrs by Western blot analysis; type: cell-based
[24] = tested on: PANC-1; assay: Induction of apoptosis in human PANC1 cells after 24 hrs by Annexin V-FITC/propidium iodide-based FACS analysis; type: functional, cell-based
[25] = Cell cycle arrest in human PANC1 cells assessed as accumulation at G2/M phase at 1 uM after 24 hrs by propidium iodide staining-based FACS analysis (reference value: 33.56 %); type: functional; conditions: PANC-1

For CC1=C(O)C(=O)C=C2C1=CC=C1[C@@]2(C)CC[C@@]2(C)[C@@H]3C[C@](C)(C(=O)NCCN4CCCCC4)CC[C@]3(C)CC[C@]12C, the IC50 [1] was 840 nM, the IC50 [2] was 1180 nM and the inhibition [3] was 75.7%. It also gave an IC50 [4] of 1250 nM and a Papp [5] of 18.1 ×10⁻⁶ cm/s.
For CC1=C(O)C(=O)C=C2C1=CC=C1[C@@]2(C)CC[C@@]2(C)[C@@H]3C[C@](C)(C(=O)O)CC[C@]3(C)CC[C@]12C [CELASTROL], the IC50 [1] was 2020 nM, the IC50 [2] was 2130 nM and the IC50 [6] was 2010 nM. It also gave an IC50 [7] of 6490 nM, an inhibition [3] of 91.8% and an IC50 [4] of 2480 nM. For the same compound, the Papp [5] was 13.3 ×10⁻⁶ cm/s.
With CC1=C(O)C(=O)C=C2C1=CC=C1[C@@]2(C)CC[C@@]2(C)[C@@H]3C[C@](C)(C(=O)NCCN4CCOCC4)CC[C@]3(C)CC[C@]12C the IC50 [1] was 1270 nM, the IC50 [2] was 1340 nM and the inhibition [3] was 77.2%. It also gave an IC50 [4] of 1350 nM and a Papp [5] of 11.4 ×10⁻⁶ cm/s.
For CCCOC(=O)[C@]1(C)CC[C@]2(C)CC[C@]3(C)C4=CC=C5C(=CC(=O)C(O)=C5C)[C@]4(C)CC[C@@]3(C)[C@@H]2C1, the IC50 [1] was 1740 nM, the IC50 [2] was 1520 nM and the inhibition [3] was 44.9%. It also gave an IC50 [4] of 1310 nM.
Compound CCOC(=O)[C@]1(C)CC[C@]2(C)CC[C@]3(C)C4=CC=C5C(=CC(=O)C(O)=C5C)[C@]4(C)CC[C@@]3(C)[C@@H]2C1 has an IC50 [1] of 1970 nM, an IC50 [2] of 1760 nM and an inhibition [3] of 54.8%. It also gave an IC50 [4] of 1560 nM.
With CCN(CC)CCNC(=O)[C@]1(C)CC[C@]2(C)CC[C@]3(C)C4=CC=C5C(=CC(=O)C(O)=C5C)[C@]4(C)CC[C@@]3(C)[C@@H]2C1 the IC50 [1] was 710 nM, the IC50 [2] was 1030 nM and the IC50 [7] was 5740 nM. For the same compound, the inhibition [3] was 94.5%, the IC50 [4] was 1270 nM and the Papp [5] was 53.1 ×10⁻⁶ cm/s.
In the case of CC1=C(O)C(=O)C=C2C1=CC=C1[C@@]2(C)CC[C@@]2(C)[C@@H]3C[C@](C)(C(=O)NC(C)C)CC[C@]3(C)CC[C@]12C, the IC50 [1] is reported as 2640 nM, the IC50 [2] is reported as 2550 nM and the inhibition [3] is reported as 60%. It also gave an IC50 [4] of 2040 nM.
In the case of CC1=C(O)C(=O)C=C2C1=CC=C1[C@@]2(C)CC[C@@]2(C)[C@@H]3C[C@](C)(C(=O)N(C)C)CC[C@]3(C)CC[C@]12C, the IC50 [1] is reported as 1810 nM, the IC50 [2] is reported as 1430 nM and the inhibition [3] is reported as 60.6%. For the same compound, the IC50 [4] was 2660 nM.
Work on COC(=O)[C@]1(C)CC[C@]2(C)CC[C@]3(C)C4=CC=C5C(=CC(=O)C(O)=C5C)[C@]4(C)CC[C@@]3(C)[C@@H]2C1 [PRISTIMERIN] yielded an IC50 [1] of 1400 nM, an IC50 [2] of 1570 nM and an inhibition [3] of 60.5%. For the same compound, the IC50 [4] was 1490 nM.
Work on CCCNC(=O)[C@]1(C)CC[C@]2(C)CC[C@]3(C)C4=CC=C5C(=CC(=O)C(O)=C5C)[C@]4(C)CC[C@@]3(C)[C@@H]2C1 yielded an IC50 [1] of 2490 nM, an IC50 [2] of 2040 nM and an inhibition [3] of 60%. The IC50 [4] was 2370 nM.
CC1=C(O)C(=O)C=C2C1=CC=C1[C@@]2(C)CC[C@@]2(C)[C@@H]3C[C@](C)(C(=O)NCCN4CCN(C)CC4)CC[C@]3(C)CC[C@]12C showed an Activity [8] of 32%, an IC50 [1] of 1010 nM and an Activity [9] of 0.4%. For the same compound, the Activity [10] was 2.31%, the Activity [11] was 18.7% and the IC50 [2] was 1020 nM. The Activity [12] was 2.61%, the Activity [13] was 46.6% and the inhibition [14] was “Dose-dependent effect”. For the same compound, the Activity [15] was 1.27%, the Activity [16] was 55.4% and the IC50 [6] was 450 nM. The Activity [17] was 31.01%, the IC50 [7] was 4710 nM and the viability at 0.5 µM [18] was 90%. The inhibition [19] was “Dose-dependent effect”, the Activity [20] was 21.4% and the Activity [21] was 8.37%. The viability at 1 µM [22] was 64.1%, the inhibition [23] was “Active” and the inhibition [3] was 96.9%. For the same compound, the Activity [24] was “Dose-dependent effect”, the Activity [25] was 25.9% and the IC50 [4] was 1120 nM. It also gave a Papp [5] of 29 ×10⁻⁶ cm/s.
Work on CC1=C(O)C(=O)C=C2C1=CC=C1[C@@]2(C)CC[C@@]2(C)[C@@H]3C[C@](C)(C(=O)NCCN(C(C)C)C(C)C)CC[C@]3(C)CC[C@]12C yielded an IC50 [1] of 800 nM, an IC50 [2] of 1260 nM and an inhibition [3] of 81.6%. For the same compound, the IC50 [4] was 1050 nM and the Papp [5] was 35.2 ×10⁻⁶ cm/s.
